This is an account of results in patent US9765074B2, “Inhibitors of the renal outer medullary potassium channel” (Merck Sharp & Dohme Corp., priority 2013, dated 2017).

The assay addresses T1, hROMK (hKir1.1) (Homo sapiens, UniProt P48048).
T1 construct: expressed in transfected cells
T1 sequence (P48048 1-391): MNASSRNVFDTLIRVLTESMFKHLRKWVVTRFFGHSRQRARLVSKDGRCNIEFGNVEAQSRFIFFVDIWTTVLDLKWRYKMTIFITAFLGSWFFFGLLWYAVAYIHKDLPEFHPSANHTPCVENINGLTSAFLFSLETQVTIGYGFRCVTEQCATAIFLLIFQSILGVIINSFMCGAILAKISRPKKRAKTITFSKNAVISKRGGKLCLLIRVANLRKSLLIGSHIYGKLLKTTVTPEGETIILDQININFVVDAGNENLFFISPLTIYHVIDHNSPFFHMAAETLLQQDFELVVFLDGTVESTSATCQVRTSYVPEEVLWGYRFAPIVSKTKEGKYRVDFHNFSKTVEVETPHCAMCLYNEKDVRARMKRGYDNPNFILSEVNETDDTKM
Nature of the assay: Thallium Flux Assay (ROMK channel functional thallium flux, FLIPR-Tetra). In kind it is cell-based. The settings on record: HEK293 cells stably expressing hROMK (hKir1.1); 30 min compound incubation. The procedure, abridged: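 Thallium flux read by FluxOR fluorescence ([…]) for ~10 min after adding 3 mM Tl+/0.3 mM K+ final. Stable HEK-hKir1.1 cells were dye-loaded 90 min, exposed to compound 30 min at room temperature in ouabain/probenecid buffer; IC50 relative to a 3 μM control inhibitor.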

Molecule `CC1=C(N2C=CC3(CCN(C[C@H](O)c4ccc(-n5cnnn5)nc4)CC3)C2=O)COC1=O` [Example 116, 8-{(2R)-2-hydroxy-2-[6-(1H-tetrazol-1-yl)pyridin-3-yl]ethyl}-2-(4-methyl-5-oxo-2,5-dihydrofuran-3-yl)-1-oxo-2-aza-8-azoniaspiro[4.5]dec-3-ene] yielded a 50% inhibitory concentration (IC50) of 30 nM. The result for `COc1cc(-n2cnnn2)ccc1[C@@H](O)CN1CCC2(CC1)CCN(C1=C(C)C(=O)OC1)C2=O` [Example 119, 8-{(2R)-2-hydroxy-2-[2-methoxy-4-(1H-tetrazol-1-yl)phenyl]ethyl}-2-(4-methyl-5-oxo-2,5-dihydrofuran-3-yl)-1-oxo-2-aza-8-azoniaspiro[4.5]decane] reads 10 nM. Molecule `COc1cc(-n2cnnn2)ccc1[C@H](O)CN1CCC2(CC1)CCN(C1=C(C)C(=O)OC1)C2=O` [Example 120, 8-{(2S)-2-hydroxy-2-[2-methoxy-4-(1H-tetrazol-1-yl)phenyl]ethyl}-2-(4-methyl-5-oxo-2,5-dihydrofuran-3-yl)-1-oxo-2-aza-8-azoniaspiro[4.5]decane] registered an IC50 of 10 nM. The result for `CC1=C(N2CCC3(CCN(C[C@H](O)c4nnc(-n5cnnn5)cc4C)CC3)C2=O)COC1=O` [Example 121, 8-{(2S)-2-hydroxy-2-[4-methyl-6-(1H-tetrazol-1-yl)pyridazin-3-yl]ethyl}-2-(4-methyl-5-oxo-2,5-dihydrofuran-3-yl)-1-oxo-2-aza-8-azoniaspiro[4.5]decane] reads 20 nM.

On to `CC1=C(N2CCC3(CCN(C[C@@H](O)c4nnc(-n5cnnn5)cc4C)CC3)C2=O)COC1=O` [Example 122, 8-{(2R)-2-hydroxy-2-[4-methyl-6-(1H-tetrazol-1-yl)pyridazin-3-yl]ethyl}-2-(4-methyl-5-oxo-2,5-dihydrofuran-3-yl)-1-oxo-2-aza-8-azoniaspiro[4.5]decane], for which the IC50 was 10 nM.

For the molecule `CC1=C(N2CCC3(CCN(C[C@@H](O)c4cc(C)c(-n5cnnn5)nn4)CC3)C2=O)COC1=O` [Example 127, 8-{(2R)-2-hydroxy-2-[5-methyl-6-(1H-tetrazol-1-yl)pyridazin-3-yl]ethyl}-2-(4-methyl-5-oxo-2,5-dihydrofuran-3-yl)-1-oxo-2-aza-8-azoniaspiro[4.5]decane], inhibition was half-maximal at 20 nM (IC50). The molecule `CC1=C(N2CCC3(CCN(C[C@H](O)c4cc(C)c(-n5cnnn5)nn4)CC3)C2=O)COC1=O` [Example 128, 8-{(2S)-2-hydroxy-2-[5-methyl-6-(1H-tetrazol-1-yl)pyridazin-3-yl]ethyl}-2-(4-methyl-5-oxo-2,5-dihydrofuran-3-yl)-1-oxo-2-aza-8-azoniaspiro[4.5]decane] came in with an IC50 of 80 nM.

`CC1=C(N2CCC3(CCN(C[C@H](O)c4ccnc(-n5cnnn5)c4)CC3)C2=O)COC1=O` [Example 129, 8-{(2R)-2-hydroxy-2-[2-(1H-tetrazol-1-yl)pyridin-4-yl]ethyl}-2-(4-methyl-5-oxo-2,5-dihydrofuran-3-yl)-1-oxo-2-aza-8-azoniaspiro[4.5]decane]: half-maximal inhibition (IC50) required 140 nM. To `CC1=C(N2CCC3(CCN(C[C@@H](O)c4ccnc(-n5cnnn5)c4)CC3)C2=O)COC1=O` [Example 130, 8-{(2S)-2-hydroxy-2-[2-(1H-tetrazol-1-yl)pyridin-4-yl]ethyl}-2-(4-methyl-5-oxo-2,5-dihydrofuran-3-yl)-1-oxo-2-aza-8-azoniaspiro[4.5]decane] belongs 160 nM. To `CC1=C(N2CCC3(CCN(C[C@H](O)c4cncc(-n5cnnn5)c4)CC3)C2=O)COC1=O` [Example 131, 8-{(2R)-2-hydroxy-2-[5-(1H-tetrazol-1-yl)pyridin-3-yl]ethyl}-2-(4-methyl-5-oxo-2,5-dihydrofuran-3-yl)-1-oxo-2-aza-8-azoniaspiro[4.5]decane] belongs 680 nM; to `CC1=C(N2CCC3(CCN(C[C@@H](O)c4cncc(-n5cnnn5)c4)CC3)C2=O)COC1=O` [Example 132, 8-{(2S)-2-hydroxy-2-[5-(1H-tetrazol-1-yl)pyridin-3-yl]ethyl}-2-(4-methyl-5-oxo-2,5-dihydrofuran-3-yl)-1-oxo-2-aza-8-azoniaspiro[4.5]decane], 640 nM; to `CC1=C(N2CCC3(CCN(C[C@@H](O)c4c(F)cc(-n5cnnn5)cc4F)CC3)C2=O)COC1=O` [Example 143, 8-{(2S)-2-[2,6-difluoro-4-(1H-tetrazol-1-yl)phenyl]-2-hydroxyethyl}-2-(4-methyl-5-oxo-2,5-dihydrofuran-3-yl)-1-oxo-2-aza-8-azoniaspiro[4.5]decane], 190 nM.

In turn, `CC1=C(N2C=CC3(CCN(C[C@H](O)c4ccc(-n5cnnn5)nn4)CC3)C2=O)COC1=O` [Example 146, 8-{(2S)-2-hydroxy-2-[6-(1H-tetrazol-1-yl)pyridazin-3-yl]ethyl}-2-(4-methyl-5-oxo-2,5-dihydrofuran-3-yl)-1-oxo-2-aza-8-azoniaspiro[4.5]dec-3-ene] registered an IC50 of 50 nM. The result for `CC1=C(N2CCC3(CCN(C[C@@H](O)c4ncc(-n5cnnn5)cc4F)CC3)C2=O)COC1=O` [Example 148, 8-{(2R)-2-[3-fluoro-5-(1H-tetrazol-1-yl)pyridin-2-yl]-2-hydroxyethyl}-2-(4-methyl-5-oxo-2,5-dihydrofuran-3-yl)-2,8-diazaspiro[4.5]decan-1-one] reads 100 nM; that for `COc1nc(-n2cnnn2)ccc1[C@@H](O)CN1CCC2(CC1)CCN(C1=C(C)C(=O)OC1)C2=O` [Example 149, 8-{(2R)-2-hydroxy-2-[2-methoxy-6-(1H-tetrazol-1-yl)pyridin-3-yl]ethyl}-2-(4-methyl-5-oxo-2,5-dihydrofuran-3-yl)-2,8-diazaspiro[4.5]decan-1-one], 20 nM; that for `COc1nc(-n2cnnn2)ccc1[C@H](O)CN1CCC2(CC1)CCN(C1=C(C)C(=O)OC1)C2=O` [Example 150, 8-{(2S)-2-hydroxy-2-[2-methoxy-6-(1H-tetrazol-1-yl)pyridin-3-yl]ethyl}-2-(4-methyl-5-oxo-2,5-dihydrofuran-3-yl)-2,8-diazaspiro[4.5]decan-1-one], 20 nM.

Consider `O=C1C=C(N2C=CC3(CCN(C[C@H](O)c4ccc(-n5cnnn5)nc4)CC3)C2=O)CO1` [Example 151, 8-{(2R)-2-hydroxy-2-[6-(1H-tetrazol-1-yl)pyridin-3-yl]ethyl}-1-oxo-2-(5-oxo-2,5-dihydrofuran-3-yl)-2-aza-8-azoniaspiro[4.5]dec-3-ene], for which the IC50 was 30 nM. To `O=C1C=C(N2C=CC3(CCN(C[C@H](O)c4cnc(-n5cnnn5)cn4)CC3)C2=O)CO1` [Example 152, 8-{(2S)-2-hydroxy-2-[5-(1H-tetrazol-1-yl)pyrazin-2-yl]ethyl}-1-oxo-2-(5-oxo-2,5-dihydrofuran-3-yl)-2-aza-8-azoniaspiro[4.5]dec-3-ene] belongs 270 nM; to `CC1=C(N2C=CC3(CCN(C[C@@H](O)c4nnc(-n5cnnn5)cc4C)CC3)C2=O)COC1=O` [Example 153, 8-{(2R)-2-hydroxy-2-[4-methyl-6-(1H-tetrazol-1-yl)pyridazin-3-yl]ethyl}-2-(4-methyl-5-oxo-2,5-dihydrofuran-3-yl)-1-oxo-2-aza-8-azoniaspiro[4.5]dec-3-ene], 40 nM.

In the case of `CC1=C(N2C=CC3(CCN(C[C@H](O)c4nnc(-n5cnnn5)cc4C)CC3)C2=O)COC1=O` [Example 154, 8-{(2S)-2-hydroxy-2-[4-methyl-6-(1H-tetrazol-1-yl)pyridazin-3-yl]ethyl}-2-(4-methyl-5-oxo-2,5-dihydrofuran-3-yl)-1-oxo-2-aza-8-azoniaspiro[4.5]dec-3-ene], it took 30 nM to reach half-maximal inhibition (IC50).

`O=C1C=C(N2C=CC3(CCN(C[C@@H](O)c4ccc(-n5cnnn5)nc4)CC3)C2=O)CO1` [Example 155, 8-{(2S)-2-hydroxy-2-[6-(1H-tetrazol-1-yl)pyridin-3-yl]ethyl}-1-oxo-2-(5-oxo-2,5-dihydrofuran-3-yl)-2-aza-8-azoniaspiro[4.5]dec-3-ene] returned an IC50 of 60 nM. The result for `CC1=C(N2C=CC3(CCN(C[C@@H](O)c4ccc(-n5cnnn5)nc4)CC3)C2=O)COC1=O` [Example 156, 8-{(2S)-2-hydroxy-2-[6-(1H-tetrazol-1-yl)pyridin-3-yl]ethyl}-2-(4-methyl-5-oxo-2,5-dihydrofuran-3-yl)-1-oxo-2-aza-8-azoniaspiro[4.5]dec-3-ene] reads 20 nM.

In the case of `CC1(O)CC2(CCN(C[C@H](O)c3ccc(-n4cnnn4)nc3)CC2)C(=O)N1C1=CC(=O)OC1` (stereo partly drawn) [Example 157, 3-hydroxy-8-{(2R)-2-hydroxy-2-[6-(1H-tetrazol-1-yl)pyridin-3-yl]ethyl}-3-methyl-1-oxo-2-(5-oxo-2,5-dihydrofuran-3-yl)-2-aza-8-azoniaspiro[4.5]decane], half-maximal inhibition (IC50) required 70 nM. The result for `CC1(O)CC2(CCN(C[C@H](O)c3ccc(-n4cnnn4)nn3)CC2)C(=O)N1C1=CC(=O)OC1` (stereo partly drawn) [Example 158, 3-hydroxy-8-{(2S)-2-hydroxy-2-[6-(1H-tetrazol-1-yl)pyridazin-3-yl]ethyl}-3-methyl-1-oxo-2-(5-oxo-2,5-dihydrofuran-3-yl)-2-aza-8-azoniaspiro[4.5]decane] reads 560 nM.

`CC1=C(N2C=CC3(CCN(C[C@H](O)c4cnc(-n5cnnn5)cn4)CC3)C2=O)COC1=O` [Example 163, 8-{(2S)-2-hydroxy-2-[5-(1H-tetrazol-1-yl)pyrazin-2-yl]ethyl}-2-(4-methyl-5-oxo-2,5-dihydrofuran-3-yl)-1-oxo-2-aza-8-azoniaspiro[4.5]dec-3-ene] came in with an IC50 of 100 nM.

A word on the IC50: it is the concentration that gives 50% inhibition. High values mean weaker potency, low ones greater potency.
